PubChem BioAssay (NCI)
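Cells were grown in 96-well plates and exposed to each compound for 48 hours at five concentrations; endpoints were interpolated linearly between bracketing concentrations, or set to the highest concentration if not reached. Definition used: TGI = concentration required for complete inhibition of growth.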

Experiments:
Test in all cases: NCI tumour cell line growth inhibition, 48 h
HCT-116 colon = tested on: HCT-116 colon
SNB-78 CNS = tested on: SNB-78 CNS
SNB-75 CNS = tested on: SNB-75 CNS
SK-MEL-2 melanoma = tested on: SK-MEL-2 melanoma
P388 leukemia = tested on: P388 leukemia
KM12 colon = tested on: KM12 colon
OVCAR-8 ovarian = tested on: OVCAR-8 ovarian
UO-31 renal = tested on: UO-31 renal
SF-268 CNS = tested on: SF-268 CNS
HCT-15 colon = tested on: HCT-15 colon
K-562 leukemia = tested on: K-562 leukemia
UACC-257 melanoma = tested on: UACC-257 melanoma
HOP-62 NSCLC = tested on: HOP-62 NSCLC
OVCAR-4 ovarian = tested on: OVCAR-4 ovarian
IGROV1 ovarian = tested on: IGROV1 ovarian
A498 renal = tested on: A498 renal
MOLT-4 leukemia = tested on: MOLT-4 leukemia
UACC-62 melanoma = tested on: UACC-62 melanoma
HCC-2998 colon = tested on: HCC-2998 colon
SK-MEL-28 melanoma = tested on: SK-MEL-28 melanoma
NCI-H23 lung = tested on: NCI-H23 lung
NCI-H460 lung = tested on: NCI-H460 lung
A549 NSCLC = tested on: A549 NSCLC
U251 CNS = tested on: U251 CNS
OVCAR-3 ovarian = tested on: OVCAR-3 ovarian
COLO 205 colon = tested on: COLO 205 colon
CCRF-CEM leukemia = tested on: CCRF-CEM leukemia
KM20L2 colon = tested on: KM20L2 colon
MCF7 breast = tested on: MCF7 breast
OVCAR-5 ovarian = tested on: OVCAR-5 ovarian
M19-MEL melanoma = tested on: M19-MEL melanoma
XF 498 CNS = tested on: XF 498 CNS
DMS 273 small cell lung = tested on: DMS 273 small cell lung
SF-295 CNS = tested on: SF-295 CNS
HT29 colon = tested on: HT29 colon
DMS 114 small cell lung = tested on: DMS 114 small cell lung
SK-OV-3 ovarian = tested on: SK-OV-3 ovarian
LOX IMVI melanoma = tested on: LOX IMVI melanoma
SF-539 CNS = tested on: SF-539 CNS
EKVX NSCLC = tested on: EKVX NSCLC
DLD-1 colon = tested on: DLD-1 colon
NCI/ADR-RES ovarian = tested on: NCI/ADR-RES ovarian
HOP-18 NSCLC = tested on: HOP-18 NSCLC
SNB-19 CNS = tested on: SNB-19 CNS
SN12K1 renal = tested on: SN12K1 renal
MALME-3M melanoma = tested on: MALME-3M melanoma
HL-60(TB) leukemia = tested on: HL-60(TB) leukemia
RXF 393 renal = tested on: RXF 393 renal
RPMI-8226 leukemia = tested on: RPMI-8226 leukemia
NCI-H226 lung = tested on: NCI-H226 lung
SN12C renal = tested on: SN12C renal
SK-MEL-5 melanoma = tested on: SK-MEL-5 melanoma
SW-620 colon = tested on: SW-620 colon
P388/ADR leukemia = tested on: P388/ADR leukemia
NCI-H522 lung = tested on: NCI-H522 lung

Measured: TGI

CSCC[C@@H](NC(=O)[C@H](CC(C)C)NC(=O)C(Cc1cnc[nH]1)NC(=O)CNC(=O)[C@@H](NC(=O)[C@H](C)NC(=O)[C@H](Cc1cn(C=O)c2ccccc12)NC(=O)[C@H](CCC(N)=O)NC(=O)[C@@H](N)CC(N)=O)C(C)C)C(N)=O (stereo not given in full)
> 100 µM: HCT-116 colon | SNB-78 CNS | SNB-75 CNS | SK-MEL-2 melanoma | P388 leukemia | KM12 colon | OVCAR-8 ovarian | UO-31 renal | SF-268 CNS | HCT-15 colon | K-562 leukemia | UACC-257 melanoma | HOP-62 NSCLC | OVCAR-4 ovarian | IGROV1 ovarian | A498 renal | MOLT-4 leukemia | UACC-62 melanoma | HCC-2998 colon | SK-MEL-28 melanoma | NCI-H23 lung | NCI-H460 lung | A549 NSCLC | U251 CNS | OVCAR-3 ovarian | COLO 205 colon | CCRF-CEM leukemia | KM20L2 colon | MCF7 breast | OVCAR-5 ovarian | M19-MEL melanoma | XF 498 CNS | DMS 273 small cell lung | SF-295 CNS | HT29 colon | DMS 114 small cell lung | SK-OV-3 ovarian | LOX IMVI melanoma | SF-539 CNS | EKVX NSCLC | DLD-1 colon | NCI/ADR-RES ovarian | HOP-18 NSCLC | SNB-19 CNS | SN12K1 renal | MALME-3M melanoma | HL-60(TB) leukemia | RXF 393 renal | RPMI-8226 leukemia | NCI-H226 lung | SN12C renal | SK-MEL-5 melanoma | SW-620 colon | P388/ADR leukemia | NCI-H522 lung
